# ChEMBL document CHEMBL5046254, “Mycobactin Analogues with Excellent Pharmacokinetic Profile Demonstrate Potent Antitubercular Specific Activity and Exceptional Efflux Pump Inhibition” (J Med Chem, 2022)
# Experiments:
# [1] = system: Mycobacterium tuberculosis variant bovis; assay: Antimicrobial activity against Mycobacterium bovis BCG ATCC 35734 cultured in GAST-Fe media incubated for 5 days by resazurin microtiter assay; format: functional; settings: BCG ATCC 35734, 120 h, time 5 day
# [2] = system: Mycobacterium tuberculosis variant bovis; assay: Antimicrobial activity against Mycobacterium bovis BCG ATCC 35734 cultured in GAST media incubated for 5 days by resazurin microtiter assay; format: functional; settings: BCG ATCC 35734, 120 h, time 5 day
SMILES,MIC90 [1],MIC90 [2]
NC(=S)N1N=C(c2ccccc2O)CC1c1ccc(O)cc1 (stereo not drawn),32 µg/mL,16 µg/mL
Oc1ccccc1C1=NNC(c2ccc(Br)cc2)C1 (stereo not drawn),64 µg/mL,8 µg/mL
NC(=S)N1N=C(c2ccccc2O)CC1c1ccccc1 (stereo not drawn),32 µg/mL,16 µg/mL
Oc1ccccc1C1=NNC(c2ccc(Cl)cc2)C1 (stereo not drawn),32 µg/mL,8 µg/mL
